The subject of data set [1] is CYP3A4. The data set can be described thus: Selectivity ratio of IC50 for CYP3A4 in human liver microsomes using midazolam as substrate to IC50 for human transmembrane domain deficient FFAH expressed in Escherichia coli. The format is toxicity. Particulars: probe midazolam, read-out: Ratio IC50; call rule not given here. Background: Microsomes from liver hold many membrane-bound enzymes, among them those of drug oxidation.

For another data set, the system named is CYP2C19. The data set can be described thus: Selectivity ratio of IC50 for CYP2C19 in human liver microsomes to IC50 for human transmembrane domain deficient FFAH expressed in Escherichia coli. It counts as toxicity. Particulars: read-out: Ratio IC50.
Data set [2] deals with CYP2D6. The data set can be described thus: Selectivity ratio of IC50 for CYP2D6 in human liver microsomes to IC50 for human transmembrane domain deficient FFAH expressed in Escherichia coli. Particulars: read-out: Ratio IC50. It counts as toxicity.
In a further data set the target is T1, Monoglyceride lipase (Homo sapiens, UniProt Q99685).
T1 sequence (Q99685 whole entry): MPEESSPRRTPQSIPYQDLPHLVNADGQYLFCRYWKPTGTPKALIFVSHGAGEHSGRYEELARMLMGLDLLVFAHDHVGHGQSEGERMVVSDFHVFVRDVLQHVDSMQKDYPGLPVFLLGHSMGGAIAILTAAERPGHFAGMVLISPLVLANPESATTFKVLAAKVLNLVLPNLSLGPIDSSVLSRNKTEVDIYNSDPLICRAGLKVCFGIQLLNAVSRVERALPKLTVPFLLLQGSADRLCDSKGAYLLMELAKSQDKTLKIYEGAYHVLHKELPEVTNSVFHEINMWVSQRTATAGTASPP
The data set can be described thus: Inhibition of MAGL (unknown origin) up to 10 uM.

Data set [3] relates to CYP3A4. The data set can be described thus: Selectivity ratio of IC50 for CYP3A4 in human liver microsomes using midazolam as substrate to IC50 for rat FFAH expressed in Escherichia coli. As to conditions: probe midazolam, read-out: Ratio IC50. The format is toxicity.
Data set [4] has as its system CYP2C9. The data set can be described thus: Selectivity ratio of IC50 for CYP2C9 in human liver microsomes to IC50 for rat FFAH expressed in Escherichia coli. The format is toxicity. Particulars: read-out: Ratio IC50.
For another data set, the system named is CYP1A2. The data set can be described thus: Selectivity ratio of IC50 for CYP1A2 in human liver microsomes to IC50 for rat FFAH expressed in Escherichia coli. The format is toxicity. As to conditions: read-out: Ratio IC50.
Data set [5] deals with CYP2C9. The data set can be described thus: Selectivity ratio of IC50 for CYP2C9 in human liver microsomes to IC50 for human transmembrane domain deficient FFAH expressed in Escherichia coli. It counts as toxicity. As to conditions: read-out: Ratio IC50.
Data set [6] relates to CYP2D6. The data set can be described thus: Selectivity ratio of IC50 for CYP2D6 in human liver microsomes to IC50 for rat FFAH expressed in Escherichia coli. The format is toxicity. Particulars: read-out: Ratio IC50.
Data set [7] is described as follows: Drug level in plasma of Sprague-Dawley rat at 10 mg/kg, po administered as single dose via gavage measured at 12 hrs by LC-MS/MS analysis. The format is ADME, organism-based.
Data set [8] in a line: Drug level in liver of Sprague-Dawley rat at 10 mg/kg, po administered as single dose via gavage measured at 12 hrs by LC-MS/MS analysis. It counts as ADME, organism-based. Particulars: read-out: Drug uptake.
Data set [9] is described as follows: Drug level in brain of Sprague-Dawley rat at 10 mg/kg, po administered as single dose via gavage measured at 12 hrs by LC-MS/MS analysis. It counts as ADME, organism-based. As to conditions: read-out: Drug uptake.

`Nc1ncc(C(=O)N[C@H]2CC/C(=C\c3cccc(Oc4ccc(C(F)(F)F)cn4)c3)CC2)cn1` (stereo unspecified): the selectivity ratio with CYP3A4 [1], with CYP2C19, in the data set on CYP2D6 [2], in the data set on CYP3A4 [3], in the data set on CYP2C9 [4] and with CYP1A2 was over 5000 in each case. The selectivity ratio in the data set on CYP2C9 [5] and with CYP2D6 [6] was over 5000 each time. Besides, the “inhibition (INH)” value against Monoglyceride lipase was “Not Active”.

With `Cc1cc(C(=O)N[C@H]2CC/C(=C\c3cccc(Oc4ccc(C(F)(F)F)cn4)c3)CC2)cnc1N` (stereo unspecified), the selectivity ratio in the data set with CYP3A4 [1], in the data set with CYP2C19, in the data set with CYP2D6 [2], with CYP3A4 [3], in the data set with CYP2C9 [4] and in the data set on CYP1A2 was over 5000 in each case. Further, the selectivity ratio in the data set with CYP2C9 [5] and with CYP2D6 [6] was over 5000 each time. Also, at Monoglyceride lipase, the “inhibition (INH)” value was “Not Active”.

As for `O=C(N[C@H]1CC/C(=C\c2cccc(Oc3ccc(C(F)(F)F)cn3)c2)CC1)c1cccnc1` (stereo unspecified), the concentration at 12 h in data set [7] was determined as 1.9 µM; in [8], 21 µM; in data set [9], 3.6 µM.

Values taken from ChEMBL document CHEMBL4371025, “Discovery and evaluation of novel FAAH inhibitors in neuropathic pain model” (Bioorg Med Chem Lett, 2019).
